The experiment deals with MV-4-11 cells. The experiment in a line: Gene expression microarray analysis (Affymetrix PrimeView) and GSEA. The format is cell-based, human. More on the design: RFU PODN (11730768_x_at) / Fold change /veh PODN (11730768_x_at) / RFU LINC00158 (11744669_a_at) / Fold change /veh LINC00158 (11744669_a_at) / RFU DUSP10 (11751237_a_at) / Fold change /veh DUSP10 (11751237_a_at) / RFU ID3 (11757404_x_at) / Fold change /veh ID3 (11757404_x_at) / RFU PLEKHG5 (11737974_s_at) / Fold change /veh PLEKHG5 (11737974_s_at) / RFU LRRC4B (11730491_at) / Fold change /veh LRRC4B (11730491_at) / RFU GIMAP4 (11747438_a_at) / Fold change /veh GIMAP4 (11747438_a_at) / RFU KRT8 (11758183_x_at) / Fold change /veh KRT8 (11758183_x_at) / RFU CNN1 (11734310_a_at) / Fold change /veh CNN1 (11734310_a_at) / RFU VPS37D (11726825_at) / Fold change /veh VPS37D (11726825_at) / RFU C10orf10 (11716522_x_at) / Fold change /veh C10orf10 (11716522_x_at) / RFU KIR2DL2 /// KIR2DL4 /// KIR2DL5A /// KIR2DL5B /// KIR2DS1 /// KIR2DS2 /// KIR2DS3 /// KIR2DS4 /// KIR3DL3 /// KIR3DL3 /// KIR3DS1 (11738374_at) / Fold change /veh KIR2DL2 /// KIR2DL4 /// KIR2DL5A /// KIR2DL5B /// KIR2DS1 /// KIR2DS2 /// KIR2DS3 /// KIR2DS4 /// KIR3DL3 /// KIR3DL3 /// KIR3DS1 (11738374_at) / RFU C1QL1 (11718748_at) / Fold change /veh C1QL1 (11718748_at) / RFU TMPRSS4 (11747572_a_at) / Fold change /veh TMPRSS4 (11747572_a_at) / RFU HAMP (11756126_x_at) / Fold change /veh HAMP (11756126_x_at) / RFU RNFT2 (11725882_a_at) / Fold change /veh RNFT2 (11725882_a_at) / RFU NR4A2 (11747474_a_at) / Fold change /veh NR4A2 (11747474_a_at) / RFU ABCC12 (11746883_a_at) / Fold change /veh ABCC12 (11746883_a_at) / RFU TMEM136 (11760407_x_at) / Fold change /veh TMEM136 (11760407_x_at) / RFU CLDN22 /// WWC2 (11732394_at) / Fold change /veh CLDN22 /// WWC2 (11732394_at) / RFU HLA-DPB1 (11760878_x_at) / Fold change /veh HLA-DPB1 (11760878_x_at) / RFU SPINT1 (11716480_a_at) / Fold change /veh SPINT1 (11716480_a_at) / RFU GAP43 (11754022_s_at) / Fold change /veh GAP43 (11754022_s_at) / RFU A4GNT (11735810_at) / Fold change /veh A4GNT (11735810_at) / RFU PRB3 (11715151_x_at) / Fold change /veh PRB3 (11715151_x_at) / RFU TUBB4B (11761932_at) / Fold change /veh TUBB4B (11761932_at) / RFU CAPN14 (11732068_a_at) / Fold change /veh CAPN14 (11732068_a_at) / RFU TMCC2 (11721928_a_at) / Fold change /veh TMCC2 (11721928_a_at) / RFU IRGQ (11745062_a_at) / Fold change /veh IRGQ (11745062_a_at) / RFU FAM174B (11720279_a_at) / Fold change /veh FAM174B (11720279_a_at) / RFU TMPRSS4 (11748680_a_at) / Fold change /veh TMPRSS4 (11748680_a_at) / RFU FAM212B (11763350_a_at) / Fold change /veh FAM212B (11763350_a_at) / RFU PLEKHG5 (11743358_a_at) / Fold change /veh PLEKHG5 (11743358_a_at) / RFU ZSCAN30 (11745921_a_at) / Fold change /veh ZSCAN30 (11745921_a_at) / RFU CMKLR1 (11741424_a_at) / Fold change /veh CMKLR1 (11741424_a_at) / RFU LOC101060620 /// MAPK8IP1 (11723275_at) / Fold change /veh LOC101060620 /// MAPK8IP1 (11723275_at) / RFU SPTSSB (11747773_x_at) / Fold change /veh SPTSSB (11747773_x_at) / RFU PRSS12 (11739890_at) / Fold change /veh PRSS12 (11739890_at) / RFU BIN1 (11741810_x_at) / Fold change /veh BIN1 (11741810_x_at) / RFU WNT11 (11732464_a_at) / Fold change /veh WNT11 (11732464_a_at) / RFU C10orf10 (11716521_a_at) / Fold change /veh C10orf10 (11716521_a_at) / RFU C5orf56 (11738089_at) / Fold change /veh C5orf56 (11738089_at) / RFU CYB561 (11721691_x_at) / Fold change /veh CYB561 (11721691_x_at) / RFU ANKRD19P (11752326_a_at) / Fold change /veh ANKRD19P (11752326_a_at) / RFU OR2T12 /// OR2T33 /// OR2T8 (11738714_s_at) / Fold change /veh OR2T12 /// OR2T33 /// OR2T8 (11738714_s_at) / RFU VCAN (11748164_a_at) / Fold change /veh VCAN (11748164_a_at) / RFU JSRP1 (11732532_at) / Fold change /veh JSRP1 (11732532_at) / RFU KRTAP10-11 (11738290_x_at) / Fold change /veh KRTAP10-11 (11738290_x_at) / RFU MYO3A (11730013_a_at) / Fold change /veh MYO3A (11730013_a_at) / RFU EBF3 (11725865_a_at) / Fold change /veh EBF3 (11725865_a_at) / RFU CAMK2N1 (11719241_x_at) / Fold change /veh CAMK2N1 (11719241_x_at) / RFU C5orf56 (11738088_a_at) / Fold change /veh C5orf56 (11738088_a_at) / RFU OLFML3 (11715873_a_at) / Fold change /veh OLFML3 (11715873_a_at) / RFU LOC100653217 /// NTM (11731650_a_at) / Fold change /veh LOC100653217 /// NTM (11731650_a_at) / RFU MAPK11 (11762145_a_at) / Fold change /veh MAPK11 (11762145_a_at) / RFU FIZ1 (11724087_x_at) / Fold change /veh FIZ1 (11724087_x_at) / RFU OASL (11726364_x_at) / Fold change /veh OASL (11726364_x_at) / RFU SOX15 (11748057_x_at) / Fold change /veh SOX15 (11748057_x_at) / RFU CD79A (11719716_a_at) / Fold change /veh CD79A (11719716_a_at) / RFU HIST1H1D (11736915_at) / Fold change /veh HIST1H1D (11736915_at) / RFU CASKIN2 (11723855_a_at) / Fold change /veh CASKIN2 (11723855_a_at) / RFU LOC730098 (11760151_x_at) / Fold change /veh LOC730098 (11760151_x_at) / RFU OR4N2 (11742367_at) / Fold change /veh OR4N2 (11742367_at) / RFU PRRT2 (11749266_a_at) / Fold change /veh PRRT2 (11749266_a_at) / RFU SNX32 (11753110_a_at) / Fold change /veh SNX32 (11753110_a_at) / RFU CDHR5 (11726645_a_at) / Fold change /veh CDHR5 (11726645_a_at) / RFU RCAN1 (11760418_a_at) / Fold change /veh RCAN1 (11760418_a_at) / RFU FAM167A (11723789_a_at) / Fold change /veh FAM167A (11723789_a_at) / RFU FAM26E (11764081_at) / Fold change /veh FAM26E (11764081_at) / RFU ISYNA1 (11749810_s_at) / Fold change /veh ISYNA1 (11749810_s_at) / RFU ACY1 (11761880_at) / Fold change /veh ACY1 (11761880_at) / RFU 11764098_at / Fold change /veh 11764098_at / RFU SAMD14 (11745864_x_at) / Fold change /veh SAMD14 (11745864_x_at) / RFU NPB (11741838_a_at) / Fold change /veh NPB (11741838_a_at) / RFU TMPRSS6 (11731388_a_at) / Fold change /veh TMPRSS6 (11731388_a_at) / RFU KRTAP10-2 (11738614_at) / Fold change /veh KRTAP10-2 (11738614_at) / RFU ARHGAP8 /// PRR5-ARHGAP8 (11727945_x_at) / Fold change /veh ARHGAP8 /// PRR5-ARHGAP8 (11727945_x_at) / RFU KRTAP5-7 /// NADSYN1 (11734609_at) / Fold change /veh KRTAP5-7 /// NADSYN1 (11734609_at) / RFU RASL12 (11751679_a_at) / Fold change /veh RASL12 (11751679_a_at) / RFU CDKN2B (11736163_a_at) / Fold change /veh CDKN2B (11736163_a_at) / RFU PRF1 (11729649_at) / Fold change /veh PRF1 (11729649_at) / RFU, ZNF638 /// ZNF638-IT1 / Fold change vs veh, ZNF638 /// ZNF638-IT1 / RFU, PANK3 / Fold change vs veh, PANK3 / RFU, SH3YL1 / Fold change vs veh, SH3YL1 / RFU, ZEB2 / Fold change vs veh, ZEB2 / RFU, NRIP1 / Fold change vs veh, NRIP1 / RFU, PTTG1IP / Fold change vs veh, PTTG1IP / RFU, CAPN2 / Fold change vs veh, CAPN2 / RFU, MED14 / Fold change vs veh, MED14 / RFU, SNORA58 / Fold change vs veh, SNORA58 / RFU, C1orf63 / Fold change vs veh, C1orf63 / RFU, LRRFIP1 / Fold change vs veh, LRRFIP1 / RFU, NDUFAF7 / Fold change vs veh, NDUFAF7 / RFU, SLC12A2 / Fold change vs veh, SLC12A2 / RFU, IBTK / Fold change vs veh, IBTK / RFU, ESF1 / Fold change vs veh, ESF1 / Fold change vs veh, TMEM50B / RFU, TAOK1 / Fold change vs veh, TAOK1 / RFU, ACBD3 / Fold change vs veh, ACBD3 / RFU, TMA16 / Fold change vs veh, TMA16 / RFU, RWDD3 / Fold change vs veh, RWDD3 / RFU, BCAT1 / Fold change vs veh, BCAT1 / RFU, EDEM3 / Fold change vs veh, EDEM3 / RFU, TMEM33 / Fold change vs veh, TMEM33 / RFU, WDR75 / Fold change vs veh, WDR75 / RFU, AHCTF1 / Fold change vs veh, AHCTF1 / RFU, TFRC / Fold change vs veh, TFRC / RFU, ZDHHC17 / Fold change vs veh, ZDHHC17 / RFU, NOM1 / Fold change vs veh, NOM1 / RFU, ARL8B / Fold change vs veh, ARL8B / RFU, ZBTB11 / Fold change vs veh, ZBTB11 / RFU, TAMM41 / Fold change vs veh, TAMM41 / RFU, KIAA1704 /// LOC100996395 / Fold change vs veh, KIAA1704 /// LOC100996395 / RFU, ING1 / Fold change vs veh, ING1 / RFU, TRMT61B / Fold change vs veh, TRMT61B / RFU, FUBP3 / Fold change vs veh, FUBP3 / RFU, TP53 / Fold change vs veh, TP53 / RFU, TNKS2 / Fold change vs veh, TNKS2 / RFU, ZFP14 / Fold change vs veh, ZFP14 / RFU, ACTR2 / Fold change vs veh, ACTR2 / RFU, PPP3R1 / Fold change vs veh, PPP3R1 / RFU, PIK3R1 / Fold change vs veh, PIK3R1 / RFU, HNRNPA1 / Fold change vs veh, HNRNPA1 / RFU, RNF170 / Fold change vs veh, RNF170 / RFU, ZNF28 / Fold change vs veh, ZNF28 / RFU, RNGTT / Fold change vs veh, RNGTT / RFU, OGT / Fold change vs veh, OGT / RFU, BRD1 / Fold change vs veh, BRD1 / RFU, MARS / Fold change vs veh, MARS / RFU, ZNF655 / Fold change vs veh, ZNF655 / RFU, FAHD1 / Fold change vs veh, FAHD1 / RFU, BDP1 / Fold change vs veh, BDP1 / RFU, LRRCC1 / Fold change vs veh, LRRCC1 / RFU, ARID1A / Fold change vs veh, ARID1A / RFU, ZNF146 / Fold change vs veh, ZNF146 / RFU, ZNF330 / Fold change vs veh, ZNF330 / RFU, GPN3 / Fold change vs veh, GPN3 / RFU, C9orf123 / Fold change vs veh, C9orf123 / RFU, N4BP2L2 / Fold change vs veh, N4BP2L2 / RFU, ARFIP1 / Fold change vs veh, ARFIP1 / RFU, FAM179B / Fold change vs veh, FAM179B / RFU, BCL10 / Fold change vs veh, BCL10 / RFU, UHRF1BP1L / Fold change vs veh, UHRF1BP1L / RFU, BET1 / Fold change vs veh, BET1 / RFU, CNOT2 / Fold change vs veh, CNOT2 / RFU, ZNF268 / Fold change vs veh, ZNF268 / Fold change vs veh, ZNF507 / RFU, DGCR2 / Fold change vs veh, DGCR2 / RFU, WDSUB1 / Fold change vs veh, WDSUB1 / Fold change vs veh, HSP90B1 /// MIR3652 / RFU, ADSS / Fold change vs veh, ADSS / RFU, GK / Fold change vs veh, GK / RFU, ZNF148 / Fold change vs veh, ZNF148 / RFU, TAF9 / Fold change vs veh, TAF9 / RFU, SLC1A5 / Fold change vs veh, SLC1A5 / RFU, SLMO2 / Fold change vs veh, SLMO2 / RFU, ABCC4 / Fold change vs veh, ABCC4 / RFU, LOC101060439 /// RAP1B / Fold change vs veh, LOC101060439 /// RAP1B / RFU, RFX7 / Fold change vs veh, RFX7 / RFU, GTPBP10 / Fold change vs veh, GTPBP10 / RFU, CNEP1R1 / Fold change vs veh, CNEP1R1 / RFU, BIVM-ERCC5 /// ERCC5 / Fold change vs veh, BIVM-ERCC5 /// ERCC5 / RFU, ILF3 / Fold change vs veh, ILF3 / RFU 11762660_at / Fold change /veh 11762660_at / RFU VCAN (11757783_s_at) / Fold change /veh VCAN (11757783_s_at) / RFU DDX43 (11728927_at) / Fold change /veh DDX43 (11728927_at) / RFU KRT8 (11758188_x_at) / Fold change /veh KRT8 (11758188_x_at) / RFU NKD1 (11759106_at) / Fold change /veh NKD1 (11759106_at) / RFU SRD5A1 (11742802_a_at) / Fold change /veh SRD5A1 (11742802_a_at) / RFU TPSAB1 /// TPSB2 (11721975_s_at) / Fold change /veh TPSAB1 /// TPSB2 (11721975_s_at) / RFU GSTM3 (11746129_a_at) / Fold change /veh GSTM3 (11746129_a_at) / RFU IL23R (11737362_x_at) / Fold change /veh IL23R (11737362_x_at) / RFU TMEM51 (11727254_a_at) / Fold change /veh TMEM51 (11727254_a_at) / RFU PIWIL2 (11732686_x_at) / Fold change /veh PIWIL2 (11732686_x_at) / RFU ORM1 (11744905_x_at) / Fold change /veh ORM1 (11744905_x_at) / RFU CCDC152 (11743942_at) / Fold change /veh CCDC152 (11743942_at) / RFU ECM1 (11717891_a_at) / Fold change /veh ECM1 (11717891_a_at) / RFU IL23R (11748794_a_at) / Fold change /veh IL23R (11748794_a_at) / RFU TNFAIP8L3 (11732012_x_at) / Fold change /veh TNFAIP8L3 (11732012_x_at) / RFU MBOAT4 (11741988_at) / Fold change /veh MBOAT4 (11741988_at) / RFU 11764193_at / Fold change /veh 11764193_at / RFU TMEM53 (11763286_at) / Fold change /veh TMEM53 (11763286_at) / RFU MAGEB2 (11727129_at) / Fold change /veh MAGEB2 (11727129_at) / RFU TMEM200A (11744735_a_at) / Fold change /veh TMEM200A (11744735_a_at) / RFU CCDC152 (11751479_a_at) / Fold change /veh CCDC152 (11751479_a_at) / RFU FAM211A (11726209_a_at) / Fold change /veh FAM211A (11726209_a_at) / RFU RGS16 (11746705_a_at) / Fold change /veh RGS16 (11746705_a_at) / RFU VCAN (11755009_s_at) / Fold change /veh VCAN (11755009_s_at) / RFU RHOB (11743442_s_at) / Fold change /veh RHOB (11743442_s_at) / RFU RGS16 (11720943_a_at) / Fold change /veh RGS16 (11720943_a_at) / RFU RGS16 (11720944_at) / Fold change /veh RGS16 (11720944_at) / RFU, VPS4B / Fold change vs veh, VPS4B / RFU, CREB1 / Fold change vs veh, CREB1 / RFU, DNAJC13 / Fold change vs veh, DNAJC13 / RFU, GNAQ / Fold change vs veh, GNAQ / RFU, CDK5R1 / Fold change vs veh, CDK5R1 / RFU, ZRANB3 / Fold change vs veh, ZRANB3 / RFU, CUL4A / Fold change vs veh, CUL4A / RFU, CCNY / Fold change vs veh, CCNY / RFU, UFL1 / Fold change vs veh, UFL1 / RFU, COG3 / Fold change vs veh, COG3 / RFU, DIAPH2 / Fold change vs veh, DIAPH2 / RFU, SKA2 / Fold change vs veh, SKA2 / RFU, AFF3 / Fold change vs veh, AFF3 / RFU, LMF1 / Fold change vs veh, LMF1 / RFU, IPO11 / Fold change vs veh, IPO11 / RFU, DFFB / Fold change vs veh, DFFB / RFU, FOXP1 / Fold change vs veh, FOXP1 / RFU, CARD8 / Fold change vs veh, CARD8 / RFU, STRN3 / Fold change vs veh, STRN3 / RFU, ADK / Fold change vs veh, ADK / RFU, RASSF2 / Fold change vs veh, RASSF2 / RFU, WIPF1 / Fold change vs veh, WIPF1 / RFU, LARP1B / Fold change vs veh, LARP1B / RFU, RASA1 / Fold change vs veh, RASA1 / RFU, RB1 / Fold change vs veh, RB1 / RFU, PPFIA1 / Fold change vs veh, PPFIA1 / RFU, MAT2A / Fold change vs veh, MAT2A / RFU, CCT5 / Fold change vs veh, CCT5 / RFU, WDR92 / Fold change vs veh, WDR92 / RFU, CUX1 / Fold change vs veh, CUX1 / RFU, TTC7A / Fold change vs veh, TTC7A / RFU, TMEM135 / Fold change vs veh, TMEM135 / RFU, DEPTOR / Fold change vs veh, DEPTOR / RFU, CPM / Fold change vs veh, CPM / RFU, DNAJB6 / Fold change vs veh, DNAJB6 / RFU, CACNA2D3 / Fold change vs veh, CACNA2D3 / RFU, DTX4 / Fold change vs veh, DTX4 / RFU, TFCP2 / Fold change vs veh, TFCP2 / RFU, GMCL1 /// GMCL1P1 / Fold change vs veh, GMCL1 /// GMCL1P1 / RFU, AEBP2 / Fold change vs veh, AEBP2 / RFU, SNHG1 /// SNORD22 /// SNORD25 /// SNORD26 /// SNORD27 /// SNORD28 /// SNORD29 /// SNORD31 / Fold change vs veh, SNHG1 /// SNORD22 /// SNORD25 /// SNORD26 /// SNORD27 /// SNORD28 /// SNORD29 /// SNORD31 / Fold change (Aza/veh), C12orf56 (ProbeSet 11735607_a_at) / Fold change (ACY-1035/veh), C12orf56 (ProbeSet 11735607_a_at) / Fold change (Aza/veh), FGFR1OP (ProbeSet 11751329_s_at) / Fold change (ACY-1035/veh), FGFR1OP (ProbeSet 11751329_s_at) / Fold change (Aza/veh), VPS36 (ProbeSet 11739960_a_at) / Fold change (ACY-1035/veh), VPS36 (ProbeSet 11739960_a_at) / RFU SYPL1 (11715823_x_at) / Fold change /veh SYPL1 (11715823_x_at) / RFU IGFBP7 (11715501_s_at) / Fold change /veh IGFBP7 (11715501_s_at) / RFU REEP3 (11722064_at) / Fold change /veh REEP3 (11722064_at) / RFU IGLL1 (11728026_x_at) / Fold change /veh IGLL1 (11728026_x_at): dose or concentration left out as unconfirmed. The conditions noted are these: MV-4-11 cells, 48 hours.

With `Nc1ncn([C@@H]2O[C@H](CO)[C@@H](O)[C@H]2O)c(=O)n1` [azacitidine], the “RFU FAM212B (11763350_a_at)” value is reported as 32.55 RFU.

Values taken from paper PMC5218480 (PLoS ONE, 2017).
